Values quoted from earlier work, collected in patent US20060083786A1 (Glenmark Pharmaceuticals Limited, priority 2004, published 2006).

Details: in vivo

Q: For `O=C(O)COCCN1CCN([C@H](c2ccccc2)c2ccc(Cl)cc2)CC1` [Levocetirizine], which “side effects on the central nervous system” value is on record?
A: free from side effects
